Measured values published in PMC11861906, “Structural basis for lipid-mediated activation of G protein-coupled receptor GPR55” (Nature Communications, 2025).

Tests used:
Assay type in all cases: cell-based
[1] = biological target: GPR55 mutant N171A (Gα13) (Homo sapiens, UniProt Q9Y2T6, N171A); test: BRET² G protein dissociation assay, GPR55 N171A with Gα13
Description: (§1) To validate the functionality of the GPR55 cryo-EM construct, we conducted bioluminescence resonance energy transfer 2 (BRET²)-based G protein dissociation assays[46],[47] using an engineered heterotrimeric G13 protein. The N-terminal GFP fusion of the receptor was additionally modified with a G67A mutation to disrupt fluorescence properties. We employed human embryonic kidney (HEK) cells overexpressing wt or mutant GPR55 together with Gβ3, Gγ9-GFP, and Gα13 tagged with Renilla luciferase 8 (Rluc8).
(§2) G protein dissociation assays were performed according to the original protocols of the TRUPATH BRET² assay[47],[87] but with subtle modifications as previously described[61],[88],[89]. All reagents and cells were obtained from Thermo Fisher Scientific unless indicated otherwise. The coding sequences for the G protein biosensors[47] (Gα12-Rluc8, Gα13-Rluc8, wt Gβ3, and Gγ9-GFP), the wt GPR55, the construct used for cryo-EM (with GFP bearing a G67A mutation to disrupt fluorescence properties[48] for BRET² assays), GPR55 binding pocket mutants (G152^4.56F, G152^4.56W, N171^ECL2Q, N171^ECL2A, T176^5.33A, R253^6.62A), and the wt TBXA2R were codon-optimized for Homo sapiens, gene-synthesized, and sub-cloned into pcDNA^TM3.1(+) between NheI and HindIII restriction sites by GeneArt (Thermo Fisher Scientific). […] Freshly grown cells were washed with Dulbecco’s Balanced Salt Solution (DPBS, cat. #14200075) and detached using trypsin-ethylenediaminetetraacetic acid (trypsin-EDTA) (cat. #25300-062). Then, the cells were reconstituted to 500,000 cells per mL with fresh medium, and 1,000,000 cells were seeded into each well of a 6-well plate. After 3 h incubation at 37 °C and 5% CO2, adherent cells were transfected with 600 ng DNA (1:1:1:1 ratio of plasmid DNA for GPR55, wt Gβ3, Gγ9-GFP, and Gα12-Rluc8 or Gα13-Rluc8). Plasmid DNA was mixed with 1.5 µL Lipofectamine^TM 2000 (cat. #11668027) in Opti-MEM^TM medium (cat. #31985062) and incubated for 20 min. Then, the mixture was added to each well of the 6-well plate following 24 h incubation at 37 °C and 5% CO2. Transfected cells were washed with DPBS, detached using EDTA (Versene, cat. #15040066), and reconstituted into fresh medium at 500,000 cells mL^−1. From this suspension, 50,000 cells were seeded into each well of a white-bottom 96-well plate (Nunc^TM MicroWell^TM 96 wells, cat. #136101) following overnight incubation at 37 °C and 5% CO2. Then, the adherent cells were washed with assay medium [Hank’s balanced salt solution (HBSS, cat. #14065056) plus 20 mM HEPES pH 7.4 (cat. #15630056)] and finally reconstituted into 50 µL of the same medium. […] Methoxy e-Coelenterazine was used as luciferase substrate (Prolume Purple, NanoLight Technology, cat. #369), reconstituted at 1 mM in methanol and diluted to 37.5 µM with assay buffer (7.5 µM final assay concentration). The assay was started by the addition of 20 µL luciferase substrate to each well of the assay plate using a Multidrop^TM Combi reagent dispenser (Thermo Fisher Scientific), followed by 5 min incubation at room temperature. Then, 30 µL of agonist dilutions or DMSO control was added (final DMSO concentration 1.5%), followed by an additional 5 min incubation at room temperature. BRET² measurements were performed with a PHERAstar® FSX microplate reader (BMG LABTECH) using a BRET² filter (donor emission 370–450 nm, acceptor emission 500–530 nm) at the maximum fluorescence gain of 3600. BRET² ratios were calculated by dividing GFP emission signals from Rluc8 emission counts. Buffer-DMSO controls were subtracted from each data point to calculate ΔBRET² ratios.

[2] = biological target: GPR55 mutant R253A (Gα13) (Homo sapiens, UniProt Q9Y2T6, R253A); test: BRET² G protein dissociation assay, GPR55 R253A with Gα13
Chain of GPR55 mutant R253A (Gα13) (Q9Y2T6 whole entry R253A): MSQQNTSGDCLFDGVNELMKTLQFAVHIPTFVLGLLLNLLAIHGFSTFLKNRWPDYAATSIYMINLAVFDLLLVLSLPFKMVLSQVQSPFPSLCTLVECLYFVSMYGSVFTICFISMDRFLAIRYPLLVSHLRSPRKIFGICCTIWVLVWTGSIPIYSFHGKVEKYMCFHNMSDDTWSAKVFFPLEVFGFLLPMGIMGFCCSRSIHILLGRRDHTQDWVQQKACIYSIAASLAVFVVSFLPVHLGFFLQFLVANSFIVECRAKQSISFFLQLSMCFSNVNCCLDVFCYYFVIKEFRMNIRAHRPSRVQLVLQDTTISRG
Chain of GPR55 mutant R253A (Gα13) (Q14344 whole entry partner): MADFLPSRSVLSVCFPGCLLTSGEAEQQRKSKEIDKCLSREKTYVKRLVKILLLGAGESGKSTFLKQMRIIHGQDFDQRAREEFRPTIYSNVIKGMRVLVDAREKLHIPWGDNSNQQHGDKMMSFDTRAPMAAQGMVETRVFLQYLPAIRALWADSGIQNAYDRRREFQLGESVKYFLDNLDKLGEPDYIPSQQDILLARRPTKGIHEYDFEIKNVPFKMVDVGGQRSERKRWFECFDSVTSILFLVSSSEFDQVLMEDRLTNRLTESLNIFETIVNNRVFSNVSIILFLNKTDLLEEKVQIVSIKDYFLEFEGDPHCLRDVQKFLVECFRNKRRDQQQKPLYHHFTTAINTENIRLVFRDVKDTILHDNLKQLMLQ
Chain of GPR55 mutant R253A (Gα13) (P16520 whole entry partner): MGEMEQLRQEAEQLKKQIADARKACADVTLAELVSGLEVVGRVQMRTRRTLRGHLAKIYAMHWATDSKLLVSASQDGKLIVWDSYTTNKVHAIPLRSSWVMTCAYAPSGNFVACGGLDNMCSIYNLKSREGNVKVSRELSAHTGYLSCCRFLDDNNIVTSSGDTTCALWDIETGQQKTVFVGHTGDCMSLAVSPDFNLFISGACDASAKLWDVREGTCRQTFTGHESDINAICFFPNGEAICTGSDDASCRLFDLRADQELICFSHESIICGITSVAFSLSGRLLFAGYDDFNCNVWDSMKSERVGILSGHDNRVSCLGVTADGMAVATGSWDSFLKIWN
Chain of GPR55 mutant R253A (Gα13) (O14610 1-66 partner limits assumed): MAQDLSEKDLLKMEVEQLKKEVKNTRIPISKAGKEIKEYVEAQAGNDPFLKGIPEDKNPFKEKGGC
Description: as §1, §2

[3] = biological target: GPR55 mutant T176A (Gα13) (Homo sapiens, UniProt Q9Y2T6, T176A); test: BRET² G protein dissociation assay, GPR55 T176A with Gα13
Chain of GPR55 mutant T176A (Gα13) (Q9Y2T6 whole entry T176A): as the sequence (Q9Y2T6 whole entry R253A) above, with T176A, A253R counted along it
Chain of GPR55 mutant T176A (Gα13) (Q14344 whole entry partner): as the sequence (Q14344 whole entry partner) above
Chain of GPR55 mutant T176A (Gα13) (P16520 whole entry partner): as the sequence (P16520 whole entry partner) above
Chain of GPR55 mutant T176A (Gα13) (O14610 1-66 partner limits assumed): as the sequence (O14610 1-66 partner limits assumed) above
Description: as §1, §2

Chain of GPR55 mutant N171A (Gα13) (Q9Y2T6 whole entry N171A, the tested form may be a part): as the sequence (Q9Y2T6 whole entry R253A) above, with N171A, A253R counted along it
Chain of GPR55 mutant N171A (Gα13) (Q14344 whole entry partner, the tested form may be a part): as the sequence (Q14344 whole entry partner) above
Chain of GPR55 mutant N171A (Gα13) (P16520 whole entry partner, the tested form may be a part): as the sequence (P16520 whole entry partner) above
Chain of GPR55 mutant N171A (Gα13) (O14610 1-66 partner limits assumed): as the sequence (O14610 1-66 partner limits assumed) above

Cc1cccc(N2CCN(C(=O)c3cc(S(=O)(=O)N(C)C)ccc3N3CCCC3)CC2)c1C [ML184, 3-[[4-(2,3-dimethylphenyl)-1-piperazinyl]carbonyl]-N,N-dimethyl-4-(1-pyrrolidinyl)benzenesulfonamide]
Mean (plotted) BRET² response, GPR55-N171A-G13 ([1]; Concentration 300 pM): 0.002752
Mean (plotted) BRET² response, GPR55-N171A-G13 ([1]; Concentration 1e-9 M): 0.003846
Mean (plotted) BRET² response, GPR55-N171A-G13 ([1]; Concentration 3e-9 M): -0.0003036
Mean (plotted) BRET² response, GPR55-N171A-G13 ([1]; Concentration 1e-8 M): 0.001966
Mean (plotted) BRET² response, GPR55-N171A-G13 ([1]; Concentration 3e-8 M): -0.0002448
Mean (plotted) BRET² response, GPR55-N171A-G13 ([1]; Concentration 1e-7 M): -0.005366
Mean (plotted) BRET² response, GPR55-N171A-G13 ([1]; Concentration 3e-7 M): -0.01646
Mean (plotted) BRET² response, GPR55-N171A-G13 ([1]; Concentration 1e-6 M): -0.04126
Mean (plotted) BRET² response, GPR55-N171A-G13 ([1]; Concentration 3e-6 M): -0.05866
Mean (plotted) BRET² response, GPR55-N171A-G13 ([1]; Concentration 1e-5 M): -0.07333
Mean (plotted) BRET² response, GPR55-N171A-G13 ([1]; Concentration 3e-5 M): -0.07936
EC50 ([1]; GPR55 N171A, Gα13): 1050 nM
Emax at 30 µM ([1]; GPR55 N171A, Gα13, 30 µM ligand, same normalization, read-out: Efficacy ± SEM (%)): 73 ± 3%
reduction of potency compared to wt GPR55 ([1]; N171A mutant): 24 fold
Mean (plotted) BRET² response, GPR55-R253A-G13 ([2]; Concentration 300 pM): -0.01108
Mean (plotted) BRET² response, GPR55-R253A-G13 ([2]; Concentration 1e-9 M): -0.01039
Mean (plotted) BRET² response, GPR55-R253A-G13 ([2]; Concentration 3e-9 M): -0.0289
Mean (plotted) BRET² response, GPR55-R253A-G13 ([2]; Concentration 1e-8 M): -0.05814
Mean (plotted) BRET² response, GPR55-R253A-G13 ([2]; Concentration 3e-8 M): -0.08149
Mean (plotted) BRET² response, GPR55-R253A-G13 ([2]; Concentration 1e-7 M): -0.0987
Mean (plotted) BRET² response, GPR55-R253A-G13 ([2]; Concentration 3e-7 M): -0.1069
Mean (plotted) BRET² response, GPR55-R253A-G13 ([2]; Concentration 1e-6 M): -0.1131
Mean (plotted) BRET² response, GPR55-R253A-G13 ([2]; Concentration 3e-6 M): -0.1166
Mean (plotted) BRET² response, GPR55-R253A-G13 ([2]; Concentration 1e-5 M): -0.1236
Mean (plotted) BRET² response, GPR55-R253A-G13 ([2]; Concentration 3e-5 M): -0.1287
EC50 ([2]; GPR55 R253A, Gα13): 14.5 nM
increase of potency compared to wt GPR55 ([2]; R253A mutant): slightly increased by a factor of three
Mean (plotted) BRET² response, GPR55-T176A-G13 ([3]; Concentration 300 pM): 0.001302
Mean (plotted) BRET² response, GPR55-T176A-G13 ([3]; Concentration 1e-9 M): -0.0007282
Mean (plotted) BRET² response, GPR55-T176A-G13 ([3]; Concentration 3e-9 M): -0.005903
Mean (plotted) BRET² response, GPR55-T176A-G13 ([3]; Concentration 1e-8 M): -0.01189
Mean (plotted) BRET² response, GPR55-T176A-G13 ([3]; Concentration 3e-8 M): -0.02424
Mean (plotted) BRET² response, GPR55-T176A-G13 ([3]; Concentration 1e-7 M): -0.03886
Mean (plotted) BRET² response, GPR55-T176A-G13 ([3]; Concentration 3e-7 M): -0.05218
Mean (plotted) BRET² response, GPR55-T176A-G13 ([3]; Concentration 1e-6 M): -0.06011
Mean (plotted) BRET² response, GPR55-T176A-G13 ([3]; Concentration 3e-6 M): -0.06604
Mean (plotted) BRET² response, GPR55-T176A-G13 ([3]; Concentration 1e-5 M): -0.06889
Mean (plotted) BRET² response, GPR55-T176A-G13 ([3]; Concentration 3e-5 M): -0.07107
EC50 ([3]; GPR55 T176A, Gα13): 77.6 nM
Emax at 30 µM ([3]; GPR55 T176A, Gα13, 30 µM ligand, same normalization, read-out: Efficacy ± SEM (%)): 100 ± 1%
reduction of potency compared to wt GPR55 ([3]; T176A mutant): 2 fold

CCCCC[C@H](O)/C=C/[C@@H]1[C@@H](C/C=C\CCCC(=O)O)[C@H]2CO[C@@H]1C2 [U-46619]
Mean (plotted) BRET² response, GPR55-N171A-G13 ([1]; Concentration 10 pM): 0.0067
Mean (plotted) BRET² response, GPR55-N171A-G13 ([1]; Concentration 30 pM): 0.0022
Mean (plotted) BRET² response, GPR55-N171A-G13 ([1]; Concentration 100 pM): 0.008
Mean (plotted) BRET² response, GPR55-N171A-G13 ([1]; Concentration 300 pM): -0.003007
Mean (plotted) BRET² response, GPR55-N171A-G13 ([1]; Concentration 1e-9 M): 0.003546
Mean (plotted) BRET² response, GPR55-N171A-G13 ([1]; Concentration 3e-9 M): 0.00299
Mean (plotted) BRET² response, GPR55-N171A-G13 ([1]; Concentration 1e-8 M): -0.006252
Mean (plotted) BRET² response, GPR55-N171A-G13 ([1]; Concentration 3e-8 M): 0.007492
Mean (plotted) BRET² response, GPR55-N171A-G13 ([1]; Concentration 1e-7 M): 0.005274
Mean (plotted) BRET² response, GPR55-N171A-G13 ([1]; Concentration 3e-7 M): 0.006727
Mean (plotted) BRET² response, GPR55-N171A-G13 ([1]; Concentration 1e-6 M): 0.007007
Mean (plotted) BRET² response, GPR55-N171A-G13 ([1]; Concentration 3e-6 M): 0.002553
Mean (plotted) BRET² response, GPR55-N171A-G13 ([1]; Concentration 1e-5 M): -0.002868
Mean (plotted) BRET² response, GPR55-N171A-G13 ([1]; Concentration 3e-5 M): -0.004916
Mean (plotted) BRET² response, GPR55-R253A-G13 ([2]; Concentration 10 pM): 0.0024
Mean (plotted) BRET² response, GPR55-R253A-G13 ([2]; Concentration 30 pM): 0.00435
Mean (plotted) BRET² response, GPR55-R253A-G13 ([2]; Concentration 100 pM): 0.00475
Mean (plotted) BRET² response, GPR55-R253A-G13 ([2]; Concentration 300 pM): -0.008328
Mean (plotted) BRET² response, GPR55-R253A-G13 ([2]; Concentration 1e-9 M): 0.002391
Mean (plotted) BRET² response, GPR55-R253A-G13 ([2]; Concentration 3e-9 M): 0.002546
Mean (plotted) BRET² response, GPR55-R253A-G13 ([2]; Concentration 1e-8 M): 0.001532
Mean (plotted) BRET² response, GPR55-R253A-G13 ([2]; Concentration 3e-8 M): 0.002853
Mean (plotted) BRET² response, GPR55-R253A-G13 ([2]; Concentration 1e-7 M): 0.0008838
Mean (plotted) BRET² response, GPR55-R253A-G13 ([2]; Concentration 3e-7 M): -0.0001645
Mean (plotted) BRET² response, GPR55-R253A-G13 ([2]; Concentration 1e-6 M): -0.0002602
Mean (plotted) BRET² response, GPR55-R253A-G13 ([2]; Concentration 3e-6 M): -0.001768
Mean (plotted) BRET² response, GPR55-R253A-G13 ([2]; Concentration 1e-5 M): -0.005378
Mean (plotted) BRET² response, GPR55-R253A-G13 ([2]; Concentration 3e-5 M): -0.00746
Mean (plotted) BRET² response, GPR55-T176A-G13 ([3]; Concentration 10 pM): -0.0049
Mean (plotted) BRET² response, GPR55-T176A-G13 ([3]; Concentration 30 pM): 0.00215
Mean (plotted) BRET² response, GPR55-T176A-G13 ([3]; Concentration 100 pM): 0.0004
Mean (plotted) BRET² response, GPR55-T176A-G13 ([3]; Concentration 300 pM): 0.0002029
Mean (plotted) BRET² response, GPR55-T176A-G13 ([3]; Concentration 1e-9 M): 0.000161
Mean (plotted) BRET² response, GPR55-T176A-G13 ([3]; Concentration 3e-9 M): 0.0002381
Mean (plotted) BRET² response, GPR55-T176A-G13 ([3]; Concentration 1e-8 M): -0.0002172
Mean (plotted) BRET² response, GPR55-T176A-G13 ([3]; Concentration 3e-8 M): 0.0004783
Mean (plotted) BRET² response, GPR55-T176A-G13 ([3]; Concentration 1e-7 M): -0.0003604
Mean (plotted) BRET² response, GPR55-T176A-G13 ([3]; Concentration 3e-7 M): 0.004625
Mean (plotted) BRET² response, GPR55-T176A-G13 ([3]; Concentration 1e-6 M): 0.001082
Mean (plotted) BRET² response, GPR55-T176A-G13 ([3]; Concentration 3e-6 M): -0.0002941
Mean (plotted) BRET² response, GPR55-T176A-G13 ([3]; Concentration 1e-5 M): 0.003133
Mean (plotted) BRET² response, GPR55-T176A-G13 ([3]; Concentration 3e-5 M): 0.0069
